Experimental data from the NIST ThermoML archive (doi:10.1021/acs.jced.5b00903).
Numbers after ± are expanded uncertainties.

Experiment: xn = mol fraction of the nth substance listed
Conditions: surface light scattering

CCCCCCC [heptane] + CCO
surface tension liquid-gas [mN/m]
Conditions | x1 = 0.0481 | x1 = 0.1018 | x1 = 0.1676 | x1 = 0.2314 | x1 = 0.3171 | x1 = 0.4111 | x1 = 0.5123 | x1 = 0.6417 | x1 = 0.7983 | x1 = 1
293.15 K | 21.78 ± 0.23 | 21.27 ± 0.22 | 20.93 ± 0.22 | 20.74 ± 0.22 | 20.53 ± 0.22 | 20.36 ± 0.22 | 20.25 ± 0.22 | 20.2 ± 0.22 | 20.17 ± 0.22 | 20.12 ± 0.23
298.15 K | 21.3 ± 0.22 | 20.77 ± 0.22 | 20.41 ± 0.21 | 20.22 ± 0.21 | 20.02 ± 0.21 | 19.85 ± 0.21 | 19.75 ± 0.21 | 19.72 ± 0.21 | 19.71 ± 0.22 | 19.69 ± 0.22
303.15 K | 20.83 ± 0.22 | 20.27 ± 0.21 | 19.89 ± 0.21 | 19.7 ± 0.21 | 19.48 ± 0.21 | 19.31 ± 0.21 | 19.2 ± 0.21 | 19.16 ± 0.21 | 19.15 ± 0.21 | 19.13 ± 0.21
308.15 K | 20.43 ± 0.21 | 19.84 ± 0.21 | 19.44 ± 0.2 | 19.24 ± 0.2 | 19.02 ± 0.2 | 18.83 ± 0.2 | 18.72 ± 0.2 | 18.69 ± 0.2 | 18.68 ± 0.21 | 18.67 ± 0.21
313.15 K | 20 ± 0.21 | 19.39 ± 0.2 | 18.98 ± 0.2 | 18.76 ± 0.2 | 18.53 ± 0.2 | 18.33 ± 0.19 | 18.2 ± 0.19 | 18.16 ± 0.2 | 18.13 ± 0.2 | 18.1 ± 0.2
318.15 K | 19.64 ± 0.2 | 19.01 ± 0.2 | 18.58 ± 0.19 | 18.36 ± 0.19 | 18.12 ± 0.19 | 17.91 ± 0.19 | 17.79 ± 0.19 | 17.75 ± 0.19 | 17.73 ± 0.19 | 17.7 ± 0.2

CCCCCCO [hexan-1-ol] + CC(C)CC(C)(C)C
surface tension liquid-gas [mN/m]
Conditions | x2 = 0 | x2 = 0.1001 | x2 = 0.2 | x2 = 0.3001 | x2 = 0.4 | x2 = 0.5 | x2 = 0.6001 | x2 = 0.7001 | x2 = 0.7997 | x2 = 0.8998
298.15 K | 25.56 ± 0.29 | 24.01 ± 0.26 | 22.65 ± 0.25 | 21.78 ± 0.23 | 21.03 ± 0.22 | 20.33 ± 0.21 | 19.78 ± 0.2 | 19.38 ± 0.2 | 18.95 ± 0.19 | 18.65 ± 0.19
303.15 K | 24.95 ± 0.28 | 23.31 ± 0.26 | 22.03 ± 0.24 | 21.17 ± 0.23 | 20.44 ± 0.22 | 19.76 ± 0.21 | 19.25 ± 0.2 | 18.88 ± 0.19 | 18.47 ± 0.19 | 18.22 ± 0.18
308.15 K | 24.65 ± 0.28 | 22.99 ± 0.25 | 21.62 ± 0.23 | 20.74 ± 0.22 | 19.99 ± 0.21 | 19.3 ± 0.2 | 18.77 ± 0.19 | 18.41 ± 0.19 | 18 ± 0.18 | 17.75 ± 0.18
313.15 K | 23.93 ± 0.27 | 22.3 ± 0.25 | 20.9 ± 0.23 | 20.05 ± 0.21 | 19.34 ± 0.2 | 18.69 ± 0.2 | 18.21 ± 0.19 | 17.9 ± 0.18 | 17.54 ± 0.18 | 17.37 ± 0.18
318.15 K | 23.58 ± 0.26 | 21.91 ± 0.24 | 20.45 ± 0.22 | 19.58 ± 0.21 | 18.85 ± 0.2 | 18.17 ± 0.19 | 17.69 ± 0.18 | 17.37 ± 0.18 | 17.01 ± 0.17 | 16.84 ± 0.17
323.15 K | 23.21 ± 0.26 | 21.43 ± 0.24 | 19.99 ± 0.22 | 19.11 ± 0.2 | 18.38 ± 0.19 | 17.71 ± 0.19 | 17.24 ± 0.18 | 16.94 ± 0.17 | 16.6 ± 0.17 | 16.47 ± 0.17

CCCCCO [pentan-1-ol] + CC(C)CC(C)(C)C
surface tension liquid-gas [mN/m]
Conditions | x2 = 0 | x2 = 0.1004 | x2 = 0.2003 | x2 = 0.3 | x2 = 0.4 | x2 = 0.5 | x2 = 0.5999 | x2 = 0.6998 | x2 = 0.7999 | x2 = 0.8996
298.15 K | 25.29 ± 0.28 | 23.81 ± 0.26 | 22.53 ± 0.24 | 21.7 ± 0.23 | 20.97 ± 0.22 | 20.3 ± 0.21 | 19.77 ± 0.2 | 19.38 ± 0.2 | 18.94 ± 0.19 | 18.64 ± 0.19
303.15 K | 24.87 ± 0.28 | 23.28 ± 0.26 | 22.05 ± 0.24 | 21.22 ± 0.23 | 20.49 ± 0.22 | 19.82 ± 0.21 | 19.3 ± 0.2 | 18.93 ± 0.19 | 18.51 ± 0.19 | 18.22 ± 0.18
308.15 K | 24.46 ± 0.27 | 22.83 ± 0.25 | 21.56 ± 0.23 | 20.71 ± 0.22 | 19.98 ± 0.21 | 19.3 ± 0.2 | 18.79 ± 0.19 | 18.42 ± 0.19 | 18.01 ± 0.18 | 17.75 ± 0.18
313.15 K | 24.05 ± 0.27 | 22.42 ± 0.25 | 21.08 ± 0.23 | 20.23 ± 0.22 | 19.51 ± 0.21 | 18.84 ± 0.2 | 18.34 ± 0.19 | 18 ± 0.18 | 17.61 ± 0.18 | 17.38 ± 0.18
318.15 K | 23.65 ± 0.26 | 21.99 ± 0.24 | 20.58 ± 0.22 | 19.71 ± 0.21 | 18.97 ± 0.2 | 18.3 ± 0.19 | 17.79 ± 0.18 | 17.45 ± 0.18 | 17.07 ± 0.17 | 16.85 ± 0.17
323.15 K | 23.21 ± 0.26 | 21.5 ± 0.24 | 20.14 ± 0.22 | 19.26 ± 0.21 | 18.51 ± 0.2 | 17.83 ± 0.19 | 17.34 ± 0.18 | 17.02 ± 0.17 | 16.65 ± 0.17 | 16.43 ± 0.17

CCCO [propan-1-ol] + CC(C)CC(C)(C)C
x2 = 0
Conditions | surface tension liquid-gas [mN/m]
298.15 K | 23.31 ± 0.24
303.15 K | 22.9 ± 0.24
308.15 K | 22.52 ± 0.23
313.15 K | 22.1 ± 0.23
318.15 K | 21.68 ± 0.22
323.15 K | 21.27 ± 0.22
